Legend:
[1] = system: K-562; experiment: panel of 60 human tumor cell lines, growth inhibition (Leukemia)
[2] = system: MDA-MB-435; experiment: panel of 60 human tumor cell lines, growth inhibition (Melanoma); settings: Homo sapiens; for GI50: MDA-MB-435; for CC50: MDA-MB-435, read-out: LC50; for IC (TGI): MDA-MB-435, read-out: TGI
[3] = system: SF-268; experiment: panel of 60 human tumor cell lines, growth inhibition (CNS Cancer); settings: Homo sapiens; for GI50: SF-268; for CC50: SF-268, read-out: LC50; for IC (TGI): SF-268, read-out: TGI
[4] = system: SF-539; experiment: as above; settings: Homo sapiens; for GI50: SF-539; for CC50: SF-539, read-out: LC50; for IC (TGI): SF-539, read-out: TGI
[5] = system: COLO 205; experiment: panel of 60 human tumor cell lines, growth inhibition (Colon Cancer); settings: Homo sapiens; for GI50: COLO 205; for CC50: COLO 205, read-out: LC50; for IC (TGI): COLO 205, read-out: TGI
[6] = system: HCT-116; experiment: as above; settings: Homo sapiens; for GI50: HCT-116, HCT-116; for CC50: HCT-116, read-out: LC50; for IC (TGI): HCT-116, read-out: TGI
[7] = system: SW-620; experiment: as above; settings: Homo sapiens; for GI50: SW-620, SW-620; for CC50: SW-620, read-out: LC50; for IC (TGI): SW-620, read-out: TGI
[8] = system: 786-0; experiment: panel of 60 human tumor cell lines, growth inhibition (Renal Cancer); settings: Homo sapiens; for GI50: 786-0; for CC50: 786-0, read-out: LC50; for IC (TGI): 786-0, read-out: TGI
[9] = system: ACHN; experiment: as above; settings: Homo sapiens; for CC50: read-out: LC50; for IC (TGI): read-out: TGI
[10] = system: UO-31; experiment: as above; settings: Homo sapiens; for GI50: UO-31; for CC50: UO-31, read-out: LC50; for IC (TGI): UO-31, read-out: TGI
[11] = system: HS 578T; experiment: panel of 60 human tumor cell lines, growth inhibition (Breast Cancer); settings: Homo sapiens, Hs-578T; for CC50: read-out: LC50; for IC (TGI): read-out: TGI
[12] = system: BT-549; experiment: as above; settings: Homo sapiens; for GI50: BT-549; for CC50: BT-549, read-out: LC50; for IC (TGI): BT-549, read-out: TGI
[13] = system: T-47D; experiment: as above; settings: Homo sapiens, T47D; for CC50: read-out: LC50; for IC (TGI): read-out: TGI
[14] = system: IGROV1; experiment: panel of 60 human tumor cell lines, growth inhibition (Ovarian Cancer); settings: Homo sapiens; for GI50: IGROV-1; for CC50: IGROV-1, read-out: LC50; for IC (TGI): IGROV-1, read-out: TGI
[15] = system: OVCAR-5; experiment: as above; settings: Homo sapiens; for GI50: OVCAR-5; for CC50: OVCAR-5, read-out: LC50; for IC (TGI): OVCAR-5, read-out: TGI
[16] = system: OVCAR-8; experiment: as above; settings: Homo sapiens; for GI50: OVCAR-8; for CC50: OVCAR-8, read-out: LC50; for IC (TGI): OVCAR-8, read-out: TGI
[17] = system: NCI/ADR-RES; experiment: as above; settings: Homo sapiens; for CC50: read-out: LC50; for IC (TGI): read-out: TGI
[18] = system: NCI-H522; experiment: panel of 60 human tumor cell lines, growth inhibition (Non-Small Cell Lung Cancer); settings: Homo sapiens; for GI50: NCI-H522; for CC50: NCI-H522, read-out: LC50; for IC (TGI): NCI-H522, read-out: TGI

C=C1C(=O)O[C@H]2[C@H]1CC/C(COC(=O)NCCN1CCOCC1)=C\CC[C@@]1(C)O[C@@H]21 [JVM 57, ((1aR,7aS,10aS,10bS,E)-1a-methyl-8-methylene-9-oxo-1a,2,3,6,7,7a,8,9,10a,10b-decahydrooxireno[2′,3′:9,10]-cyclodeca[1,2-b]furan-5-yl)-methyl(2-morpholinoethyl)carbamate] gave a GI50 ([1]; Homo sapiens, K562) of 3.37 µM, a CC50 ([1]; Homo sapiens, K562, read-out: LC50) greater than 100 µM and a TGI ([1]; K-562) of 2.88E−5. For the same molecule, the “Percent Growth” value ([1]; K-562, Log10 Concentration −4.0) was −16%, the “Percent Growth” value ([1]; K-562, Log10 Concentration −5.0) was 14% and the “Percent Growth” value ([1]; K-562, Log10 Concentration −6.0) was 90%. For the same molecule, the “Percent Growth” value ([1]; K-562, Log10 Concentration −7.0) was 99%, the “Percent Growth” value ([1]; K-562, Log10 Concentration −8.0) was 100% and the GI50 [2] was 5.89 µM. For the same molecule, the CC50 [2] was 66.9 µM, the IC (TGI) [2] was 22 µM and the GI50 [3] was 14.5 µM. It also gave a CC50 [3] of 64.4 µM, an IC (TGI) [3] of 30.5 µM and a GI50 [4] of 14.4 µM. It also gave a CC50 [4] of 55.2 µM, an IC (TGI) [4] of 28.2 µM and a GI50 [5] of 8.89 µM. The CC50 [5] was 71.6 µM, the IC (TGI) [5] was 25.9 µM and the GI50 [6] was 2.87 µM. It also gave a GI50 ([6]; 5-dose assay) of 2.87 µM, a CC50 [6] of 38.9 µM and an IC (TGI) [6] of 10.7 µM. The GI50 [7] was 3.48 µM, the GI50 ([7]; 5-dose assay) was 3.48 µM and the CC50 [7] was 64.8 µM. For the same molecule, the IC (TGI) [7] was 13.9 µM, the GI50 [8] was 11.4 µM and the CC50 [8] was 59.4 µM. The IC (TGI) [8] was 26 µM, the GI50 [9] was 3.74 µM and the CC50 [9] was 44.3 µM. It also gave an IC (TGI) [9] of 14.3 µM, a GI50 [10] of 10.7 µM and a CC50 [10] of 54.5 µM. For the same molecule, the IC (TGI) [10] was 24.1 µM, the GI50 [11] was 20.1 µM and the CC50 [11] was greater than 100 µM. It also gave an IC (TGI) [11] greater than 100 µM, a GI50 [12] of 4.99 µM and a CC50 [12] of 49.3 µM. It also gave an IC (TGI) [12] of 17.6 µM, a GI50 [13] of 6.32 µM and a CC50 [13] of 71.5 µM. For the same molecule, the IC (TGI) [13] was 23.2 µM, the GI50 [14] was 3.49 µM and the CC50 [14] was 58.6 µM. For the same molecule, the IC (TGI) [14] was 14.6 µM, the GI50 [15] was 15.7 µM and the CC50 [15] was 78.5 µM. It also gave an IC (TGI) [15] of 35.2 µM, a GI50 [16] of 12.7 µM and a CC50 [16] greater than 100 µM. For the same molecule, the IC (TGI) [16] was 36.8 µM, the GI50 [17] was 52.3 µM and the CC50 [17] was greater than 100 µM. It also gave an IC (TGI) [17] greater than 100 µM, a GI50 [18] of 2.13 µM and a CC50 [18] of 31.8 µM. The IC (TGI) [18] was 5.88 µM.

Molecule C=C1C(=O)O[C@H]2[C@H]1CC/C(COC(=O)Nc1n[nH]c(SC)n1)=C\CC[C@@]1(C)O[C@@H]21 [JVM 64, ((1aR,7aS,10aS,10bS,E)-1a-methyl-8-methylene-9-oxo-1a,2,3,6,7,7a,8,9,10a,10b-decahydrooxireno[2′,3′:9,10]cyclodeca[1,2-b]furan-5-yl)methyl-(5-(methylthio)-1H-1,2,4-triazol-3-yl)carbamate] has a GI50 [2] of 2.24 µM, a CC50 [2] of 74.8 µM and an IC (TGI) [2] of 7.13 µM. For the same molecule, the GI50 [3] was 3.73 µM, the CC50 [3] was 52.6 µM and the IC (TGI) [3] was 14.7 µM. For the same molecule, the GI50 [4] was 1.76 µM, the CC50 [4] was 9.46 µM and the IC (TGI) [4] was 4.08 µM. It also gave a GI50 [5] of 1.79 µM, a CC50 [5] of 7.35 µM and an IC (TGI) [5] of 3.63 µM. The GI50 ([6]; 5-dose assay) was 1.13 µM, the GI50 ([6]; NCI five dose) was 1.13 µM and the CC50 [6] was 5.86 µM. It also gave an IC (TGI) [6] of 2.6 µM, a GI50 ([7]; 5-dose assay) of 1.12 µM and a GI50 ([7]; NCI five dose) of 1.12 µM. It also gave a CC50 [7] of 8.49 µM, an IC (TGI) [7] of 3.09 µM and a GI50 [8] of 1.66 µM. The CC50 [8] was 7.2 µM, the IC (TGI) [8] was 3.45 µM and the GI50 [9] was 1.75 µM. The CC50 [9] was 17.8 µM, the IC (TGI) [9] was 4.89 µM and the GI50 [10] was 1.98 µM. For the same molecule, the CC50 [10] was 34 µM, the IC (TGI) [10] was 7.86 µM and the GI50 [11] was 2.44 µM. The CC50 [11] was greater than 100 µM, the IC (TGI) [11] was 8.75 µM and the GI50 [12] was 1.47 µM. The CC50 [12] was 6.24 µM, the IC (TGI) [12] was 3.83 µM and the GI50 [13] was 2.23 µM. It also gave a CC50 [13] of 70.9 µM, an IC (TGI) [13] of 5.31 µM and a GI50 [14] of 3.66 µM. It also gave a CC50 [14] of 57.8 µM, an IC (TGI) [14] of 14.2 µM and a GI50 [15] of 2.18 µM. For the same molecule, the CC50 [15] was 24 µM, the IC (TGI) [15] was 5.92 µM and the GI50 [16] was 2.71 µM. For the same molecule, the CC50 [16] was 51.6 µM, the IC (TGI) [16] was 12.1 µM and the GI50 [17] was 24.7 µM. It also gave a CC50 [17] greater than 100 µM, an IC (TGI) [17] greater than 100 µM and a GI50 [18] of 1.26 µM. The CC50 [18] was 7.87 µM and the IC (TGI) [18] was 3.17 µM.

Reference: patent US9469650B2, “Melampomagnolide B derivatives” (BOARD OF TRUSTEES OF THE UNIVERSITY OF ARKANSAS, priority 2013, dated 2016)
